One compound from patent US10478464B2, “Compositions and methods of use” (priority 2009, dated 2019) can be followed below.

For this test, the system named is PLC5 cells a Hepatocellular Carcinoma cell line. The test is described as follows: Liver xenograft mouse model (PLC5). Type of test: in vivo, BALB/c nu/nu mice. The text has this:
The purpose of this study was to determine anti tumor efficacy of 8-HHA in liver cancer using PLC5 cells a Hepatocellular Carcinoma cell line. The tumor growth and animal survival were considered as primary end point.
Animals and care: Thirty BABL/c nude, non-pregnant and nulliparous female mice that are 5-6 weeks old and weighing 16-20 gms were used in this study. BALB/c nu/nu mice were used because they have been historically used in xenograft studies to test anti-tumor efficacy of drug candidates. Mice were acclimatized for minimum 5 days, under same conditions as for the actual test. Mice were housed at room temperature 68±5° F. with room Relative Humidity of 30-70%, air Exchanges per Hour of a minimum of 10 changes per hour, lights exposure of 12-hour light/dark cycle, full spectrum fluorescent lights. The mice were housed in groups in ventilated micro-isolator cages made up of polycarbonate. The mice were using autoclaved laboratory grade bedding and were provided ad libitum with irradiated pellets and autoclaved water. There were no known contaminants present in the feed, water, or bedding expected to interfere with the test data. The laboratory and animal rooms were maintained as limited-access facilities.
Route of injection and dose: 8-HHA was administered through intraperitoneal (IP) injection. […] For this study, 2 doses-10 mg/kg and 100 mg/kg were used.
Tumor Induction: The cell line PLC5 were cultured according to recommended specifications at Vanas Oncology, in which cells were grown and maintained in RPMI medium containing 10% fetal bovine serum, 2 mM L-Glutamine, 100 units/ml of Streptomycin and 100 units/ml of Penicilin. Cells were trypizinized and counted using the Trypan-blue viability test using a hemocytometer. Cell counts in quadrants of the hemocytometer were converted to a cells/mL value, which will enable isolation of the appropriate number of cells per mouse. Each mouse was inoculated subcutaneously in the right flank region with 0.2 mL of a 50% RPMI/50% Matrigel™ mixture containing a suspension of tumor cells (5×10^6 cells/mouse). Tumors were observed twice weekly until well established. Tumor volume was calculated using the formula: Tumor weight (mg)=(a×b^2/2) where ‘b’ is the smallest diameter and ‘a’ is the largest diameter in millimeters.
Allocation of Animals: Once the established tumors reach a mean calculated volume of approximately 50-100 mg, the mice were randomized, using appropriate software, into treatment groups in order to reduce the variability of tumor sizes per group.
Pre Dose Procedure: Acclimated animals were weighed and observed for clinical signs of toxicity prior to dosing on Day 1.
The first day of dosing is Day 1. On Day 1,8-HHA, and vehicle injections were administered according to the study design in Table 7 below.
Post Dose Procedure: Following treatment, tumor and mouse body weight measurements were recorded twice weekly and gross observation was made at least once daily. Mice with tumors that are not palpable was considered complete regressions. Percentage of mice mortality and time of death will be recorded for every group in the study. Animals may be defined as moribund and sacrificed if one or more of the following criteria are met: • Loss of body weight of 20% or greater in a 1 week period. • Mice that inhibit normal physiological function such as eating, drinking, mobility, and ability to urinate and/or defecate. • Tumors that exceed a maximum size of 2000 mg as measured by calipers. • Ulcerated tumors, or tumors that bleed or produce exudates. • Prolonged, excessive diarrhea leading to excessive weight loss (>20%). • Persistent wheezing and respiratory distress. • Prolonged or excessive pain or distress as defined by clinical observations such as: prostration, hunched posture, paralysis/paresis, distended abdomen, ulcerations, abscesses, seizures, and/or hemorrhages.

For `CCCCCCCCC(O)CCCCCCC(=O)O` (racemic) [Sample 8-HHA, 8-hydroxy-palmitic acid], the “tumor volume decrease compared to the control group” value by setting is: (T1 10 mg/Kg, day 4) 44.5%; (T1 10 mg/Kg, day 9) 49.8%; (T1 10 mg/Kg, day 11) 72.3%; (T1 10 mg/Kg, day 16) 77.7%; (T1 10 mg/Kg, day 18) 78.4%; (T2 100 mg/Kg, day 4) 56.3%. Moreover, the “tumor volume decrease compared to the control group” value amounted to 61.1% (T2 100 mg/Kg, day 9); 81.1% (T2 100 mg/Kg, day 11); 87.9% (T2 100 mg/Kg, day 16); 88.3% (T2 100 mg/Kg, day 18). Also, the “tumor growth inhibition, in words” value (both T1 (10 mg/Kg) and T2 (100 mg/Kg)) was “significantly inhibited tumor growth in mice from day 4”.
